# Experimental data taken from patent publication US8541584B2, “3-(1,2,3-triazol-4-yl) pyrrolo [2,3-b] pyridine derivatives” (Merck Patent GmbH, priority 2009, dated 2013).
# Tests used:
# PDK1 = target: T1, PDK1 (Homo sapiens, UniProt O15530); test: Test for the inhibition of PDK1 (384-well flashplate, 33P-ATP); assay type: biochemical; details: His6-PDK1 3.4 nM, 4 μM ATP, 30° C., 60 min
# T1 construct: His6 (N)
# T1 sequence (O15530 51-556 limits assumed): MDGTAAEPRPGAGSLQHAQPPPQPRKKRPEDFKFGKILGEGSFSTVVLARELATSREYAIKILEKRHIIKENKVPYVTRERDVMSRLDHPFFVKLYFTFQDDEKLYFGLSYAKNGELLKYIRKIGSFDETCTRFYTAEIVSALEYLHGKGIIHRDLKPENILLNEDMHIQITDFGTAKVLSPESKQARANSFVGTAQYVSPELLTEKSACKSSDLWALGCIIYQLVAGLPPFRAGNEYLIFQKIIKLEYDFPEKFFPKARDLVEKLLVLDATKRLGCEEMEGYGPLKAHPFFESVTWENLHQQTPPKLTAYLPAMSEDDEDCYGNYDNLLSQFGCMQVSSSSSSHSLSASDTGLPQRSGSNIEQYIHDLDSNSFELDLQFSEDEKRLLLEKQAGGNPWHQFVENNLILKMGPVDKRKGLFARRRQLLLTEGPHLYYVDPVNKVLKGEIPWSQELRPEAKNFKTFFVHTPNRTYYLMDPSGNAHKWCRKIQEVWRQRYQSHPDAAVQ
# Description: 4.0 Test for the Inhibition of PDK1
# The experimental batches are carried out in a flashplate system with 384 wells/microtitration plate.
# In each case, the PDK1 sample His6-PDK1(1-50)(3.4 nM), the PDK1 substrate biotin-bA-bA-[…] (400 nM), 4 μM ATP (with 0.2 μCi of ^33P-ATP/well) and the test substance in 50 μl of conventional experimental solution per well are incubated at 30° C. for 60 min. The test substances are employed in corresponding concentrations (if desired in a dilution series). The control is carried out without test substance. The reaction is stopped using standard methods and washed. The activity of the kinase is measured via the incorporated radioactivity in top count. In order to determine the non-specific kinase reaction (blank value), the experimental batches are carried out in the presence of 100 nM staurosporin.
# The radioactivity (decompositions per minute) of the blank value (no use of test substance in the presence of staurosporin) is subtracted from all other radioactivity values. The controls (kinase activity without test substance) are set equal to 100 percent and all other radioactivity values (after subtracting the blank value) are expressed set in relation thereto (for example in % of the control).
# IC50 values (50% inhibition) are determined with the aid of statistics programmes, such as, for example, RS1.
# [1] = test system: PDK1 kinase activity (P-T308-PKB) in PC3 cells; test: Cellular testing of PDK1 kinase inhibitors (Luminex assay, P-T308-PKB in PC3 cells); assay type: cell-based; details: Homo sapiens, PC-3, 0.5 h, serum-free, 30 min with test substance
# Description: Description of the Method for Cellular Testing of PDK1 Kinase Inhibitors
# The cellular assay for determination of the PDK1 kinase activity is performed as Luminex assay in the 96-well format. PC3 cells are sown at 20,000 cells per well in 100 μl of medium (45% of […]/45% of Ham's F12/10% of FCS) and incubated under serum-free conditions on the following day for 30 min with serial dilution of the test substance (7 concentrations). The cells are subsequently lysed using 90 μl of lysis buffer (20 mM Tris/HCl pH 8.0, 150 mM NaCl, 1% of NP40, 10% of glycerol, 1% of phosphatase inhibitor I, 1% of phosphatase inhibitor II, 0.1% of protease inhibitor Cocktail III, 0.01% of benzonase) per well, and the lysates are separated off from insoluble cell constituents by means of centrifugation through a 96-well filter plate (0.65 μm). The lysates are incubated overnight at 4° C. with shaking with Luminex beads to which an anti-total PKB antibody has been coupled. Detection is carried out on the following day by addition of a P-T308-PKB antibody and a species-specific PE-labelled secondary antibody. The determination of P-T308-PKB is carried out by measurement in the Luminex100 instrument by determination of 100 events per cavity in a measurement time of 60 sec. As pharmacological blank, the signals obtained from cells which have been treated with 10 μM staurosporin are subtracted from all other batches. The control value used for maximum phosphorylation of PKB on T308 are the signals from cells which have been treated only with the solvent (0.3% of DMSO). The values of the batches treated with test substance are calculated from this as percent of control, and IC50 values are determined by means of RS1.
smiles,measurement,setting,value
"c1ccc(Cn2cc(-c3c[nH]c4ncccc34)nn2)cc1 [Compound A1, 3-(1-benzyl-1H-1,2,3-triazol-4-yl)-1H-pyrrolo[2,3-b]pyridine]",IC50,PDK1,0.0005 to 1 µM
"Clc1ccc(Cn2cc(-c3c[nH]c4ncccc34)nn2)cc1 [Compound A2, 3-[1-(4-chlorobenzyl)-1H-1,2,3-triazol-4-yl]-1H-pyrrolo[2,3-b]-pyridine]",IC50,PDK1,1 to 10 µM
"Cc1[nH]c2ncccc2c1-c1cn(Cc2ccccc2)nn1 [Compound A3, 3-(1-Benzyl-1H-1,2,3-triazol-4-yl)-2-methyl-1H-pyrrolo[2,3-b]pyridine]",IC50,PDK1,0.0005 to 1 µM
"Cn1cc(-c2cnc3[nH]cc(-c4cn(Cc5cccc(F)c5)nn4)c3c2)cn1 [Compound A5, 3-[1-(3-Fluorobenzyl)-1H-1,2,3-triazol-4-yl]-5-(1-methyl-1H-pyrazol-4-yl)-1H-pyrrolo-[2,3-b]pyridine]",IC50,[1],1 to 10 µM
same,IC50,PDK1,0.0005 to 1 µM
"Cn1cc(-c2cnc3[nH]cc(-c4cn(Cc5ccc(F)cc5)nn4)c3c2)cn1 [Compound A6, 3-[1-(4-Fluorobenzyl)-1H-1,2,3-triazol-4-yl]-5-(1-methyl-1H-pyrazol-4-yl)-1H-pyrrolo-[2,3-b]pyridine]",IC50,[1],1 to 10 µM
same,IC50,PDK1,0.0005 to 1 µM
"CC(c1ccccc1)n1cc(-c2c[nH]c3ncc(-c4cnn(C)c4)cc23)nn1 (centres unmarked) [Compound A8, 5-(1-methyl-1H-pyrazol-4-yl)-3-[1-(1-phenylethyl)-1H-1,2,3-triazol-4-yl]-1H-pyrrolo[2,3-b]pyridine]",IC50,[1],1 to 10 µM
same,IC50,PDK1,0.0005 to 1 µM
"COc1ccnc2[nH]cc(-c3cn(Cc4ccccc4)nn3)c12 [Compound A15, 3-(1-benzyl-1H-1,2,3-triazol-4-yl)-4-methoxy-1H-pyrrolo[2,3-b]-pyridine]",IC50,PDK1,0.0005 to 1 µM
"CC(c1cccc(C(F)(F)F)c1)n1cc(-c2c[nH]c3ncc(-c4cnn(C)c4)cc23)nn1 (centres unmarked) [Compound A19, 5-(1-Methyl-1H-pyrazol-4-yl)-3-{1-[1-(3-trifluoromethylphenyl)ethyl]-1H-1,2,3-triazol-4-yl}-1H-pyrrolo[2,3-b]pyridine]",IC50,[1],1 to 10 µM
same,IC50,PDK1,0.0005 to 1 µM
"Cn1cc(-c2cnc3[nH]cc(-c4cn(Cc5ccc(F)cc5F)nn4)c3c2)cn1 [Compound A21, 3-[1-(2,4-Difluorobenzyl)-1H-1,2,3-triazol-4-yl]-5-(1-methyl-1H-pyrazol-4-yl)-1H-pyrrolo-[2,3-b]pyridine]",IC50,[1],1 to 10 µM
same,IC50,PDK1,0.0005 to 1 µM
"Cn1cc(-c2cnc3[nH]cc(-c4cn(Cc5cccc(C(F)(F)F)c5F)nn4)c3c2)cn1 [Compound A22, 3-[1-(2-Fluoro-3-trifluoromethylbenzyl)-1H-1,2,3-triazol-4-yl]-5-(1-methyl-1H-pyrazol-4-yl)-1H-pyrrolo[2,3-b]pyridine]",IC50,[1],1 to 10 µM
same,IC50,PDK1,0.0005 to 1 µM
"Cn1cc(-c2cnc3[nH]cc(-c4cn(Cc5cccc(Cl)c5F)nn4)c3c2)cn1 [Compound A23, 3-[1-(3-Chloro-2-fluorobenzyl)-1H-1,2,3-triazol-4-yl]-5-(1-methyl-1H-pyrazol-4-yl)-1H-pyrrolo[2,3-b]pyridine]",IC50,[1],0.0005 to 1 µM
same,IC50,PDK1,0.0005 to 1 µM
"Cn1cc(-c2cnc3[nH]cc(-c4cn(Cc5c(F)cccc5C(F)(F)F)nn4)c3c2)cn1 [Compound A24, 3-[1-(2-Fluoro-6-trifluoromethylbenzyl)-1H-1,2,3-triazol-4-yl]-5-(1-methyl-1H-pyrazol-4-yl)-1H-pyrrolo[2,3-b]pyridine]",IC50,[1],1 to 10 µM
same,IC50,PDK1,0.0005 to 1 µM
"Cn1cc(-c2cnc3[nH]cc(-c4cn(Cc5ccc(C(F)(F)F)cc5F)nn4)c3c2)cn1 [Compound A26, 3-[1-(2-Fluoro-4-trifluoromethylbenzyl)-1H-1,2,3-triazol-4-yl]-5-(1-methyl-1H-pyrazol-4-yl)-1H-pyrrolo[2,3-b]pyridine]",IC50,[1],1 to 10 µM
same,IC50,PDK1,0.0005 to 1 µM
"CC(c1ccc(C(=O)O)cc1)n1cc(-c2c[nH]c3ncc(-c4cnn(C)c4)cc23)nn1 (centres unmarked) [Compound A27, 4-(1-{4-[5-(1-Methyl-1H-pyrazol-4-yl)-1H-pyrrolo[2,3-b]pyridin-3-yl]-1,2,3-triazol-1-yl}-ethyl)benzoic acid]",IC50,PDK1,0.0005 to 1 µM
"Cn1cc(-c2cnc3[nH]cc(-c4cn(C(CC(=O)O)c5ccccc5)nn4)c3c2)cn1 (centres unmarked) [Compound A28, 3-{4-[5-(1-Methyl-1H-pyrazol-4-yl)-1H-pyrrolo[2,3-b]pyridin-3-yl]-1,2,3-triazol-1-yl}-3-phenylpropionic acid]",IC50,PDK1,0.0005 to 1 µM
"CC(c1ccc(CO)cc1)n1cc(-c2c[nH]c3ncc(-c4cnn(C)c4)cc23)nn1 (centres unmarked) [Compound A30, [4-(1-{4-[5-(1-Methyl-1H-pyrazol-4-yl)-1H-pyrrolo[2,3-b]pyridin-3-yl]-1,2,3-triazol-1-yl}-ethyl)phenyl]methanol]",IC50,[1],1 to 10 µM
same,IC50,PDK1,0.0005 to 1 µM
"Cn1cc(-c2cnc3[nH]cc(-c4cn(CC(O)c5ccccc5)nn4)c3c2)cn1 (centres unmarked) [Compound A31, 2-{4-[5-(1-Methyl-1H-pyrazol-4-yl)-1H-pyrrolo[2,3-b]pyridin-3-yl]-1,2,3-triazol-1-yl}-1-phenylethanol]",IC50,[1],1 to 10 µM
same,IC50,PDK1,0.0005 to 1 µM
"Cn1cc(-c2cnc3[nH]cc(-c4cn(Cc5ccncc5F)nn4)c3c2)cn1 [Compound A32, 3-[1-(3-Fluoropyridin-4-ylmethyl)-1H-1,2,3-triazol-4-yl]-5-(1-methyl-1H-pyrazol-4-yl)-1H-pyrrolo[2,3-b]pyridine]",IC50,[1],1 to 10 µM
"COc1cccc(Cn2cc(-c3c[nH]c4ncc(-c5cnn(C)c5)cc34)nn2)c1 [Compound A34, 3-[1-(3-Methoxybenzyl)-1H-1,2,3-triazol-4-yl]-5-(1-methyl-1H-pyrazol-4-yl)-1H-pyrrolo-[2,3-b]pyridine]",IC50,[1],1 to 10 µM
"Cn1cc(-c2cnc3[nH]cc(-c4cn(Cc5ccccc5CO)nn4)c3c2)cn1 [Compound A35, (2-{4-[5-(1-Methyl-1H-pyrazol-4-yl)-1H-pyrrolo[2,3-b]pyridin-3-yl]-1,2,3-triazol-1-ylmethyl}phenyl)methanol]",IC50,[1],1 to 10 µM
"Cn1cc(-c2cnc3[nH]cc(-c4cn(Cc5ccc(OC(F)F)cc5)nn4)c3c2)cn1 [Compound A36, 3-[1-(4-Difluoromethoxybenzyl)-1H-1,2,3-triazol-4-yl]-5-(1-methyl-1H-pyrazol-4-yl)-1H-pyrrolo[2,3-b]pyridine]",IC50,[1],1 to 10 µM
"COC(=O)c1cccc(Cn2cc(-c3c[nH]c4ncc(-c5cnn(C)c5)cc34)nn2)c1 [Compound A37, Methyl 3-{4-[5-(1-methyl-1H-pyrazol-4-yl)-1H-pyrrolo[2,3-b]pyridin-3-yl]-1,2,3-triazol-1-ylmethyl}benzoate]",IC50,[1],1 to 10 µM
"Cn1cc(-c2cnc3[nH]cc(-c4cn(Cc5ccccc5C#N)nn4)c3c2)cn1 [Compound A38, 2-{4-[5-(1-Methyl-1H-pyrazol-4-yl)-1H-pyrrolo[2,3-b]pyridin-3-yl]-1,2,3-triazol-1-yl-methyl}benzonitrile]",IC50,[1],0.0005 to 1 µM
"Cn1cc(-c2cnc3[nH]cc(-c4cn(Cc5cccc(OC(F)F)c5)nn4)c3c2)cn1 [Compound A39, 3-[1-(3-Difluoromethoxybenzyl)-1H-1,2,3-triazol-4-yl]-5-(1-methyl-1H-pyrazol-4-yl)-1H-pyrrolo[2,3-b]pyridine]",IC50,[1],1 to 10 µM
